Where a name gives a salt, the structure may show the parent alone.
How the values were obtained:
[1] = molecular target: SHP2 (Homo sapiens (Human), UniProt Q06124); assay: Shp2 Biochemical Assay (DiFMUP conversion); details: for IC50: 10 pM SHP2, activating peptide pIRS1, DiFMUP substrate, average where more than one data point
Description: SHP2 activity was monitored by measuring the conversion of the surrogate substrate 6,8-difluoromethylumbelliferyl phosphate (DiFMUP) to the fluorescent product, 6,8-difluoromethylumbelliferone (DiFMU).
SHP2 was pre-incubated with test compounds and the activating peptide pIRS1 (H2N-LN(pY)IDLDLV-(PEG)8-LST(pY)ASINFQK-amide) for 30 min, prior to addition of the 6,8-difluoromethylumbelliferyl phosphate (DiFMUP), (Thermo Fisher D6567). Final assay concentrations were 10 pM SHP2, 0.25 μM pIRS1 peptide, 50 μM DiFMUP, 25 mM Bis-Tris propane, pH 7.0, 150 mM NaCl, 0.05% (v/v) Tween-20, 0.5 mM TCEP and 5% (v/v) DMSO. Rates of reaction were then measured over 30 min by monitoring fluorescence on a BMG Pherastar reader at excitation 360 nm/emission 450 nm. IC50 values were calculated from the normalized dose-response plots using four parameter logistic curve fit.

[2] = test system: pERK; assay: Cellular pERK Inhibition Assay (phospho-p44/42 MAPK sandwich ELISA); assay type: cell-based; details: Homo sapiens; HCC827 cells, 0.5 hours compound treatment; average where more than one data point
Description: Cellular pERK Inhibition Assay
HCC827 cells (ATCC, Manassas, USA) were seeded into 96-well plates at a density of 1×10^5 cells/well in RPMI medium supplemented with 10% FBS and incubated 24 h. Compounds were diluted first in DMSO and then into serum-free medium, before being added to cells in triplicate to give a final concentration of 0.1% DMSO. Plates were incubated at 37° C. for 0.5 hours in a humidified atmosphere of 5% CO2 in air.
Following compound treatment, medium was removed and cells were lysed by adding 50 μL of lysis buffer (Cell Signalling Technology, Beverly, USA) to each well. Plates were then incubated at room temperature for 25 minutes with shaking. pERK levels were measured in lysates using the PathScan® phospho-p44/42 MAPK (Thr202/Tyr204) sandwich ELISA (Cell Signalling Technology, Beverly, USA) as per kit instructions. Briefly, 50 μL of cell lysate was added to 50 μL of ELISA sample diluent in a 96-well ELISA plate and incubated overnight at 4° C. Following washing, 100 μL of detection antibody was added per well and the plates incubated for 1 hour at 37° C. Plates were washed again and incubated at 37° C. for 30 minutes with 100 μl of HRP-linked secondary antibody per well. After final washing, 100 μL per well of TMB substrate was added and plates incubated at 37° C. to develop colour. Colour development was stopped by the addition of 100 μL per well of stop solution. Plates were read at 450 nm on a SpectraMax Gemini reader (Molecular Devices, Uckfield, UK).
The average signal from blank wells (no cells added) was subtracted from the signals from each sample well. Levels of pERK were then expressed as “percent of control”, using DMSO treated samples as control. Dose response curves were generated using GraphPad Prism Version 6 (GraphPad Software, La Jolla, USA) and fitted using the four parameter logistic curve fit.

SHP2, sequence (Q06124 whole entry): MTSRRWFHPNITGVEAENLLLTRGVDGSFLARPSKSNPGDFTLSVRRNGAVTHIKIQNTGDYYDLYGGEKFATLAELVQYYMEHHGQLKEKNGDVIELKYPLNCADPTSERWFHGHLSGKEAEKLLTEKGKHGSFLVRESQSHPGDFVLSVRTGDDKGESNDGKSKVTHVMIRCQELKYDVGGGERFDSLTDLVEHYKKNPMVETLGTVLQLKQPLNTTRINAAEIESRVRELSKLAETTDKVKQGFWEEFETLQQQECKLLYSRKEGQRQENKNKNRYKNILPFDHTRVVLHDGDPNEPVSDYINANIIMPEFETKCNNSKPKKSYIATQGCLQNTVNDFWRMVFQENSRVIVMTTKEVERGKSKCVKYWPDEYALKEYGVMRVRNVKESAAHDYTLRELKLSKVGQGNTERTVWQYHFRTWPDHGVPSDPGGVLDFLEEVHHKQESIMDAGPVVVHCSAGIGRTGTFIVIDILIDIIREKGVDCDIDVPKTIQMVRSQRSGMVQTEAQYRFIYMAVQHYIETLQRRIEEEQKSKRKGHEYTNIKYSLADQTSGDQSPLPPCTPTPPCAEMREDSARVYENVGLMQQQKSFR

Compound	IC50 [1] [nM]	IC50 [2] [nM]	inhibition at 0.03 µM ([1]; at 0.030 μM, read-out: SHP2 % inhibition at given concentration) [%]	inhibition at 0.01 µM ([1]; at 0.010 μM, read-out: SHP2 % inhibition at given concentration) [%]	inhibition at 0.003 µM ([1]; at 0.0030 μM, read-out: SHP2 % inhibition at given concentration) [%]
Cc1nc2c(-c3ccc4nn(C)cc4c3Cl)n[nH]c2nc1N1CCC2(CC1)C[C@@H](C(F)(F)F)C[C@H]2N [Example 1, (1R,3R)-8-[3-(4-chloro-2-methyl-2H-indazol-5-yl)-5-methyl-1H-pyrazolo[3,4-b]pyrazin-6-yl]-3-(trifluoromethyl)-8-azaspiro[4.5]decan-1-amine hydrochloride]	20	74	–	–	–
Cc1nc2c(-c3ccc4nn(C)cc4c3Cl)n[nH]c2nc1N1CCC2(CC1)CC(F)(F)C[C@H]2N [Example 2, (1R)-8-[3-(4-chloro-2-methyl-2H-indazol-5-yl)-5-methyl-1H-pyrazolo[3,4-b]pyrazin-6-yl]-3,3-difluoro-8-azaspiro[4.5]decan-1-amine hydrochloride]	17	81	–	–	–
Cc1nc2c(-c3ccc4nn(C)cc4c3Cl)n[nH]c2nc1N1CCC2(CC1)COC[C@H]2N [Example 3, (4S)-8-[3-(4-chloro-2-methyl-2H-indazol-5-yl)-5-methyl-1H-pyrazolo[3,4-b]pyrazin-6-yl]-2-oxa-8-azaspiro[4.5]decan-4-amine]	5.6	40	–	–	–
Cc1nc2c(-c3ccc4nn(C)c(Cl)c4c3Cl)n[nH]c2nc1N1CCC2(CC1)COC[C@H]2N [Example 4, (4S)-8-[3-(3,4-dichloro-2-methyl-2H-indazol-5-yl)-5-methyl-1H-pyrazolo[3,4-b]pyrazin-6-yl]-2-oxa-8-azaspiro[4.5]decan-4-amine]	5.3	–	–	–	–
CCn1cc2c(Cl)c(-c3n[nH]c4nc(N5CCC6(CC5)COC[C@H]6N)c(C)nc34)ccc2n1 [Example 5, (4S)-8-[3-(4-chloro-2-ethyl-2H-indazol-5-yl)-5-methyl-1H-pyrazolo[3,4-b]pyrazin-6-yl]-2-oxa-8-azaspiro[4.5]decan-4-amine]	7.6	46	–	–	–
Cc1nc2c(-c3ccc4nn(C)cc4c3Cl)n[nH]c2nc1N1CCC2(CC1)CO[C@@H](C)[C@H]2N [Example 6, (3S,4S)-8-[3-(4-Chloro-2-methyl-2H-indazol-5-yl)-5-methyl-1H-pyrazolo[3,4-b]pyrazin-6-yl]-3-methyl-2-oxa-8-azaspiro[4.5]decan-4-amine]	18	12	–	–	–
Cn1cc2c(Cl)c(-c3n[nH]c4nc(N5CCC6(CC5)CC(F)(F)C[C@H]6N)c(CO)nc34)ccc2n1 [Example 7, {6-[(1R)-1-amino-3,3-difluoro-8-azaspiro[4.5]decan-8-yl]-3-(4-chloro-2-methyl-2H-indazol-5-yl)-1H-pyrazolo[3,4-b]pyrazin-5-yl}methanol]	11	6.3	–	–	–
C[C@@H]1OCC2(CCN(c3nc4[nH]nc(-c5ccc6nn(C)c(Cl)c6c5Cl)c4nc3CO)CC2)[C@@H]1N [Example 8, {6-[(3S,4S)-4-amino-3-methyl-2-oxa-8-azaspiro[4.5]decan-8-yl]-3-(3,4-dichloro-2-methyl-2H-indazol-5-yl)-1H-pyrazolo[3,4-b]pyrazin-5-yl}methanol]	7.1	3.6	–	–	–
COc1cnc2ccc(-c3n[nH]c4nc(N5CCC6(CC5)CO[C@@H](C)[C@H]6N)c(C)nc34)c(Cl)c2n1 [Example 9, (3S,4S)-8-[3-(5-chloro-3-methoxyquinoxalin-6-yl)-5-methyl-1H-pyrazolo[3,4-b]pyrazin-6-yl]-3-methyl-2-oxa-8-azaspiro[4.5]decan-4-amine hydrochloride]	18	45	–	–	–
Cc1nc2c(-c3ccc4ncc(N(C)C)nc4c3Cl)n[nH]c2nc1N1CCC2(CC1)CO[C@@H](C)[C@H]2N [Example 10, (3S,4S)-8-{3-[5-chloro-3-(dimethylamino)quinoxalin-6-yl]-5-methyl-1H-pyrazolo[3,4-b]pyrazin-6-yl}-3-methyl-2-oxa-8-azaspiro[4.5]decan-4-amine]	19	17	–	–	–
Cc1nc2c(-c3ccc4ncc(N(C)C)nc4c3Cl)n[nH]c2nc1N1CCC2(CC1)COC[C@H]2N [Example 11, (4S)-8-{3-[5-chloro-3-(dimethylamino)quinoxalin-6-yl]-5-methyl-1H-pyrazolo[3,4-b]pyrazin-6-yl}-2-oxa-8-azaspiro[4.5]decan-4-amine]	–	32	66	–	–
Cc1nc2c(-c3ccc4ncc(N(C)C)nc4c3Cl)n[nH]c2nc1N1CCC2(CCC[C@H]2N)CC1 [Example 12, 7-(6-[(1R)-1-amino-8-azaspiro[4.5]decan-8-yl]-5-methyl-1H-pyrazolo[3,4-b]pyrazin-3-yl}-8-chloro-N,N-dimethyl-quinoxalin-2-amine]	15	33	–	–	–
COc1cnc2ccc(-c3n[nH]c4nc(N5CCC6(CC5)COC[C@H]6N)c(C)nc34)c(Cl)c2n1 [Example 13, (4S)-8-[3-(5-chloro-3-methoxyquinoxalin-6-yl)-5-methyl-1H-pyrazolo[3,4-b]pyrazin-6-yl]-2-oxa-8-azaspiro[4.5]decan-4-amine]	–	95	–	35	–
COc1cnc2ccc(-c3n[nH]c4nc(N5CCC6(CCC[C@H]6N)CC5)c(C)nc34)c(Cl)c2n1 [Example 14, (1R)-8-[3-(5-chloro-3-methoxyquinoxalin-6-yl)-5-methyl-1H-pyrazolo[3,4-b]pyrazin-6-yl]-8-azaspiro[4.5]decan-1-amine]	13	150	–	–	–
Cc1nc2c(-c3ccc4nn(C)c(Cl)c4c3Cl)n[nH]c2nc1N1CCC2(CCC[C@H]2N)CC1 [Example 15, (1R)-8-[3-(3,4-dichloro-2-methyl-2H-indazol-5-yl)-5-methyl-1H-pyrazolo[3,4-b]pyrazin-6-yl]-8-azaspiro[4.5]decan-1-amine]	7.6	59	–	–	–
Cn1nc2ccc(-c3n[nH]c4nc(N5CCC6(CC5)CC(F)(F)C[C@H]6N)c(CO)nc34)c(Cl)c2c1Cl [Example 16, {6-[(1R)-1-amino-3,3-difluoro-8-azaspiro[4.5]decan-8-yl]-3-(3,4-dichloro-2-methyl-2H-indazol-5-yl)-1H-pyrazolo[3,4-b]pyrazin-5-yl}methanol]	7	6.2	–	–	–
C[C@@H]1OCC2(CCN(c3nc4[nH]nc(-c5ccc6ncc(N(C)C)nc6c5Cl)c4nc3CO)CC2)[C@@H]1N [Example 17, {6-[(3S,4S)-4-amino-3-methyl-2-oxa-8-azaspiro[4.5]decan-8-yl]-3-[5-chloro-3-(dimethylamino)quinoxalin-6-yl]-1H-pyrazolo[3,4-b]pyrazin-5-yl}methanol]	14	5.3	–	–	–
C[C@@H]1OCC2(CCN(c3nc4[nH]nc(-c5cccc(Cl)c5Cl)c4nc3CO)CC2)[C@@H]1N [Example 18, {6-[(3S,4S)-4-amino-3-methyl-2-oxa-8-azaspiro[4.5]decan-8-yl]-3-(2,3-dichlorophenyl)-1H-pyrazolo[3,4-b]pyrazin-5-yl}methanol]	–	4.9	–	–	37
Cc1nc2c(-c3cccc(Cl)c3F)n[nH]c2nc1N1CCC2(CC1)CO[C@@H](C)[C@H]2N [Example 19, (3S,4S)-8-[3-(3-chloro-2-fluorophenyl)-5-methyl-1H-pyrazolo[3,4-b]pyrazin-6-yl]-3-methyl-2-oxa-8-azaspiro[4.5]decan-4-amine]	9.8	100	–	–	–
Cn1nc2ccc(-c3n[nH]c4nc(N5CCC6(CC5)C[C@H](F)C[C@H]6N)c(CO)nc34)c(Cl)c2c1Cl [Example 20, {6-[(1R,3S)-1-amino-3-fluoro-8-azaspiro[4.5]decan-8-yl]-3-(3,4-dichloro-2-methyl-2H-indazol-5-yl)-1H-pyrazolo[3,4-b]pyrazin-5-yl}methanol]	7.1	4.1	–	–	–
Cc1c2c(Cl)c(-c3n[nH]c4nc(N5CCC6(CC5)CO[C@@H](C)[C@H]6N)c(CO)nc34)ccc2nn1C [Example 21, {6-[(3S,4S)-4-amino-3-methyl-2-oxa-8-azaspiro[4.5]decan-8-yl]-3-(4-chloro-2,3-dimethyl-2H-indazol-5-yl)-1H-pyrazolo[3,4-b]pyrazin-5-yl}methanol]	15	5.7	–	–	–

— patent US12458640B2, “Pyrazolo[3,4-b]pyrazine SHP2 phosphatase inhibitors” (OTSUKA PHARMACEUTICAL CO., LTD., priority 2019, dated 2025)
